Reference: PubChem BioAssay (NCI)
Values joined by “and” are separate entries in the source; they are usually repeats but may differ in a detail not shown here. Identical values can stand only once.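 In this assay, cells in 96-well plates receive the compound at five concentrations for 48 hours. Endpoints are linearly interpolated between the surrounding concentrations. Abbreviation: GI50, concentration required for 50% inhibition of growth. Definition used: TGI = concentration required for complete inhibition of growth.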

Experiments:
Test in all cases: growth of human tumour cells (NCI), 48 h
SNB-75 CNS = tested on: SNB-75 CNS
SK-OV-3 ovarian = tested on: SK-OV-3 ovarian
RXF 393 renal = tested on: RXF 393 renal
SN12C renal = tested on: SN12C renal
HOP-92 NSCLC = tested on: HOP-92 NSCLC
NCI-H226 lung = tested on: NCI-H226 lung
A498 renal = tested on: A498 renal
SW-620 colon = tested on: SW-620 colon
NCI-H23 lung = tested on: NCI-H23 lung
T-47D breast = tested on: T-47D breast

| SMILES | GI50 (SNB-75 CNS) [µM] | TGI (SNB-75 CNS) [µM] | GI50 (SK-OV-3 ovarian) [µM] | TGI (SK-OV-3 ovarian) [µM] | GI50 (RXF 393 renal) | TGI (RXF 393 renal) [µM] | GI50 (SN12C renal) [µM] | TGI (SN12C renal) | TGI (HOP-92 NSCLC) | TGI (NCI-H226 lung) [µM] | TGI (A498 renal) [µM] | TGI (SW-620 colon) [µM] | TGI (NCI-H23 lung) [µM] | GI50 (T-47D breast) [µM] | GI50 (A498 renal) [µM] | GI50 (HOP-92 NSCLC) [µM] | TGI (T-47D breast) [µM] | GI50 (NCI-H226 lung) [µM] | GI50 (SW-620 colon) [µM] | GI50 (NCI-H23 lung) [µM] |
| --- | --- | --- | --- | --- | --- | --- | --- | --- | --- | --- | --- | --- | --- | --- | --- | --- | --- | --- | --- | --- |
| C=C(C)[C@@H]1CC[C@]2(C(=O)O)CC[C@]3(C)[C@H](CC[C@@H]4[C@@]5(C)CCC(N)C(C)(C)[C@@H]5CC[C@]43C)[C@@H]12 (some centres not stated) | 1.39 | 2.72 | > 100 | > 100 | 1.77 µM | 3.31 | 1.78 | 3.35 µM | – | – | – | – | – | – | – | – | – | – | – | – |
| COc1cccc(NC(=O)/C(CS(=O)(=O)CCC(C(C)=O)C(C)=O)=N\NC(C)(C)C)c1 | – | > 100 | – | > 100 | – | > 100 | – | > 100 µM | > 100 µM | > 100 | > 100 | > 100 | > 100 | – | – | – | – | – | – | – |
| CC1OC(O[C@@H]2C=C3CC[C@@H]4[C@H](CC[C@]5(C)[C@@H](c6ccc(=O)oc6)CC[C@]45O)[C@@]3(C)CC2)C(O)C(O)C1O (some centres not stated) | – | 0.003 | – | – | 0.00112 µM and 0.00894 µM | 0.00199 | – | 0.003 µM and 0.0189 µM | 0.003 µM and 0.000676 µM | – | – | – | – | 0.000846 | 0.00127 | – | – | – | – | – |
| CCNC(=O)O/N=C1\CCC2[C@@H]3CC=C4C[C@@H](OC(=O)NCC)CC[C@]4(C)C3CC[C@]12C (some centres not stated) | – | 7.35 | – | 19.7 | – | 11.6 | – | 11.9 µM | 13.3 µM | – | > 100 | 16.7 | 11.7 | – | – | – | – | – | – | – |
| CC(=O)OC1(C(C)=O)CC2(c3ccccc3)OC1(c1ccccc1)c1ccccc12 (configuration not stated) | – | > 100 | – | > 100 | – | 60.2 | – | > 100 µM | > 100 µM | 43.2 | – | > 100 | > 100 | – | – | – | – | – | – | – |
| O=C1c2c(c3c4ccccc4n(CC4CO4)c3c3[nH]c4ccccc4c23)C(=O)N1Cc1ccccc1 (configuration not stated) | – | – | – | > 100 | – | > 100 | – | > 100 µM | > 100 µM | > 100 | > 100 | > 100 | > 100 | – | – | – | – | – | – | – |
| N#Cc1c(N)oc2cc3c(C#N)c(N)oc3cc12 | – | > 100 | – | > 100 | – | > 100 | – | > 100 µM | > 100 µM | – | – | > 100 | > 100 | – | – | – | – | – | – | – |
| CO[C@H]1C[C@H](O[C@H]2CC[C@@]3(C)[C@H](CC[C@@H]4[C@@H]3CC[C@]3(C)[C@@H](C5=CC(=O)OC5)CC[C@]43O)C2)O[C@H](C)[C@H]1O | – | 0.17 | – | 0.0291 | – | 0.0105 | – | 0.0111 µM | 0.0882 µM | 0.0586 | 0.0589 | 0.113 | 0.0178 | – | – | – | – | – | – | – |
| Cc1ccccc1NC(=O)C(=O)C(C(=O)c1ccccc1F)C1OC(=O)c2ccccc21 (configuration not stated) | – | 31.8 | – | > 100 | – | 24.6 | – | 71.2 µM | 65.8 µM | 14.3 | > 100 | > 100 | 28.2 | – | – | – | – | – | – | – |
| C(=C\c1ccc2ccccc2c1Nc1ccccc1)/c1ccccc1 | – | 39.9 | – | > 83 | – | 37.6 | – | > 100 µM | 45.5 µM | > 100 | 47.6 | > 100 | > 87.6 | – | – | – | – | – | – | – |
| O=C1N(c2ccc(Cl)cc2)C(=O)C2(SC=NN2Cc2ccccc2)N1c1ccc(Cl)cc1 (configuration not stated) | – | > 100 | – | > 100 | – | > 100 | – | > 100 µM | > 100 µM | > 100 | > 100 | > 100 | > 100 | – | – | – | – | – | – | – |
| NC1(C(=O)O)CCC(C(=O)O)CC1 (configuration not stated) | – | > 100 | – | > 100 | – | > 100 | – | > 100 µM | > 100 µM | > 100 | > 100 | > 100 | > 100 | – | – | – | – | – | – | – |
| C#Cc1c(C)c(/C=C/C(C)=C\C(=O)OC)n(C)c1C | – | – | – | > 100 | – | – | – | > 100 µM | > 100 µM | > 100 | > 100 | > 100 | > 100 | – | – | – | – | – | – | – |
| COc1ccc(/C=C\c2cc(OC)c(OC)c(OC)c2)cc1NC(=O)/C=C/c1cc(OC)c(OC)c(OC)c1 | – | – | – | – | 2.66 µM | 8.96 | 4.56 | > 100 µM | > 100 µM | > 100 | > 100 | > 100 | > 100 | 5.01 | 0.949 | 3.6 | > 100 | 4.15 | 5.2 | 6.96 |
| N/N=C1/C(=O)N(c2ccc(Cl)cc2)C(=O)C(=O)C1c1nc2ccccc2s1 (configuration not stated) | – | > 100 | – | > 100 | – | > 100 | – | > 100 µM | > 100 µM | – | > 100 | > 100 | > 100 | – | – | – | – | – | – | – |
| CCOC(=O)Nc1cc2c(c(N)n1)N=C(c1ccc(Cl)cc1Cl)CN2 | – | 36.5 | – | 23.2 | – | – | – | 28.8 µM | 44.7 µM | 18 | 20.6 | 30.4 | 27.5 | – | – | – | 43.1 | – | – | – |
| N#Cc1sc2nc3c(c(-c4ccccc4)c2c1N)CCCC3 | – | – | – | > 100 | – | > 100 | – | > 100 µM | > 100 µM | > 100 | > 100 | > 100 | > 100 | – | – | – | – | – | – | – |
| COc1cc(O)c(C(=O)C2Cc3ccccc32)c(OC)c1 (configuration not stated) | – | > 100 | – | > 100 | – | 69.4 | – | > 100 µM | > 100 µM | 86 | > 100 | > 100 | – | – | – | – | – | – | – | – |
| OC[C@H]1C[C@](O)(c2ccccc2Cl)[C@@H](c2ccccc2Cl)O1 | 20.9 | 79.9 | 23.6 | 84.4 | 18.7 µM | 37.9 | 20.8 | 41.2 µM | 58.8 µM | 76.3 | 59.2 | > 100 | 74.2 | – | 22.9 | 22.2 | – | 26 | 30.1 | 25.9 |
| COc1ccc([C@@H]2[C@@H](Cl)C(=O)N2c2cc(OC)c(OC)c(OC)c2)cc1C | 0.0355 | 37.9 | 0.0841 | > 100 | 0.0313 µM | 20.6 | 0.0999 | 21.9 µM | 24.9 µM | 73.9 | 0.314 | 34.5 | > 100 | – | 0.0335 | 0.144 | – | 13.2 | 0.0462 | 0.0853 |
